Experimental data reported in patent US5656591A, “Antimicrobial agents and method for treating products therewith” (Morinaga Milk Industry Co., Ltd., priority 1992, dated 1997).

Columns and labels:
[1] = system: Staphylocoecus aureus (JCM-2151); test: Viability assay in Mueller-Hington Broth; format: cell-based, Staphylococcus aureus
Description: (§1) Precultures of test microorganisms to be used in the tests described hereunder were prepared in such a manner that: from the frozen preservation of dispersions of test microorganisms, a loop of the respective strains of the microorganisms were taken out and spread onto TRI PETIT CASE SOYA AGAR MEDIA (by BBL Company), and incubated at 37° C. for 16 hours; the colonies grown on the culture media were scraped by a platinum loop and cultivated in 2.1% Mueller-Hington Broth (by Difco Company) respectively for several hours at 37° C. The resultant microbial cultures at logarithmic phase in 3×10^8 /ml of microbial concentration were used as the precultures.
The test media to be used in the respective tests were prepared in such a manner that: aqueous solutions in a predetermined concentration of the lactoferrin hydrolysates or the lactoferrin-derived antimicrobial peptides of (1) and (2) in Preparation of Samples (supra), as well as the samples of antibiotics of (3) (supra) were respectively sterilized with filters (by Advantec Company); then a quantity of the resultant solutions of respective samples were selectively added to a quantity of basal medium (Mueller-Hington Broth) prepared in the eventual concentration of 2.1%, thereby combinations of the samples and their concentrations in the respective test media were adjusted as specified in the respective tests. […]

[2] = system: Staphylococcus aureus JCM2151; test: Test for antimicrobial activity (turbidity): growth inhibiting concentration of antibiotics; format: cell-based; details: for MIC: Staphylococcus aureus
Description: as §1
(§2) The test media to be used in the respective tests were prepared in such a manner that: aqueous solutions in a predetermined concentration of the lactoferrin hydrolysates or the lactoferrin-derived antimicrobial peptides of (1) and (2) in Preparation of Samples (supra), as well as the samples of antibiotics of (3) (supra) were respectively sterilized with filters (by Advantec Company); then a quantity of the resultant solutions of respective samples were selectively added to a quantity of basal medium (Mueller-Hington Broth) prepared in the eventual concentration of 2.1%, thereby combinations of the samples and their concentrations in the respective test media were adjusted as specified in the respective tests.
(§3) Antimicrobial activity was examined as follows: A quantity of the respective precultures prepared in (1) immediately above was diluted with 2.1% Mueller-Hington Broth to result in 2×10^6 /ml of microbial concentration; 100 μl aliquots of the resultant liquid were added to 100 μl aliquots of one of the test media as specified in the respective test; the resultant media were incubated at 37° C. for 16 hours; then the turbidity of the resultant culture broths were measured thereby antimicrobial activity was examined.
(§4) Components in the test and control media and eventual concentrations thereof were adjusted by properly combining 0 mg, 0.4 mg, 1.6 mg and 6.4 mg/ml of lactoferrin hydrolysate of (1) (in Preparation of Samples, supra). or 0 μg, 16 μg, 64 μg, and 256 μg/ml of lactoferrin-derived antimicrobial peptides of (2) (in Preparation of Samples, supra), and 0 μg, 0.01 μg, 0.1 μg, 1 μg, and 10 μg/ml of antibiotics of (3) (supra), then antimicrobial activity of the combined use of the components against Escherichia coli 0-111 and Staphylococcus aureus (JCM2151) as well as growth inhibiting concentrations of the antibiotics were investigated.

Escherichia coli 0-111 = test: as above; format: cell-based
Description: as §1, §2, §3, §4

[3] = JCM2151, antimicrobial peptide (Seq. ID No. 27) 0 μg/ml
[4] = JCM2151, antimicrobial peptide (Seq. ID No. 27) 16 μg/ml
[5] = JCM2151, antimicrobial peptide (Seq. ID No. 27) 64 μg/ml
[6] = JCM2151, antimicrobial peptide (Seq. ID No. 27) 256 μg/ml
[7] = lactoferrin hydrolysate 0 mg/ml
[8] = lactoferrin hydrolysate 0.4 mg/ml
[9] = lactoferrin hydrolysate 1.6 mg/ml
[10] = lactoferrin hydrolysate 6.4 mg/ml
[11] = Escherichia coli, 0111, antimicrobial peptide (Seq. ID No. 27) 0 μg/ml
[12] = Escherichia coli, 0111, antimicrobial peptide (Seq. ID No. 27) 16 μg/ml
[13] = Escherichia coli, 0111, antimicrobial peptide (Seq. ID No. 27) 64 μg/ml
[14] = Escherichia coli, 0111, antimicrobial peptide (Seq. ID No. 27) 256 μg/ml

SMILES	survival rate ([1]; Test 25: penicillin 1 μg/ml alone (control row))	MIC [2, 3]	MIC [2, 4]	MIC [2, 5]	MIC [2, 6]	Growth inhibiting Concentration of antibiotics [2, 7]	Growth inhibiting Concentration of antibiotics [2, 8]	Growth inhibiting Concentration of antibiotics [2, 9]	Growth inhibiting Concentration of antibiotics [2, 10]	MIC (Escherichia coli 0-111; [11])	MIC (Escherichia coli 0-111; [12])	MIC (Escherichia coli 0-111; [13])	MIC (Escherichia coli 0-111; [14])	Growth inhibiting Concentration of antibiotics (Escherichia coli 0-111; [7])	Growth inhibiting Concentration of antibiotics (Escherichia coli 0-111; [8])	Growth inhibiting Concentration of antibiotics (Escherichia coli 0-111; [9])	Growth inhibiting Concentration of antibiotics (Escherichia coli 0-111; [10])	survival rate ([1]; Test 25: streptomycin 1 μg/ml alone (control row))
CC1(C)S[C@@H]2[C@H](NC(=O)Cc3ccccc3)C(=O)N2[C@H]1C(=O)O [penicillin]	14.2%	> 1 µg/mL	1 µg/mL	1 µg/mL	0.1 µg/mL	> 1 µg/mL	1 µg/mL	1 µg/mL	0.1 µg/mL	> 1 µg/mL	> 1 µg/mL	1 µg/mL	0.1 µg/mL	> 1 µg/mL	1 µg/mL	1 µg/mL	0.1 µg/mL	
[H]/N=C(/N)N[C@H]1[C@H](O)[C@@H](O)[C@H](O[C@@H]2O[C@@H](C)[C@](O)(C=O)[C@H]2O[C@@H]2O[C@@H](CO)[C@H](O)[C@@H](O)[C@@H]2NC)[C@@H](N/C(N)=N\[H])[C@@H]1O [streptomycin]		> 1 µg/mL	> 1 µg/mL	1 µg/mL	0.01 µg/mL	> 1 µg/mL	> 1 µg/mL	1 µg/mL	0.1 µg/mL	> 1 µg/mL	> 1 µg/mL	1 µg/mL	0.01 µg/mL	> 1 µg/mL	> 1 µg/mL	1 µg/mL	0.01 µg/mL	12.4%
